The values that follow come from DBAASP.

Assay in all cases: ≥ marks a high value that may be exact or a test limit, other limits are often not marked, values filed in µg/mL are converted to µM
Experiment [1] has as its system Escherichia coli D31.
For experiment [2], the system named is Candida albicans ATCC 10231.
For experiment [3], the system named is Staphylococcus aureus ATCC 25923.
Experiment [4] concerns Pseudomonas aeruginosa ATCC 15442.
Experiment [5] deals with Streptococcus mutans ATCC 25175.
Experiment [6] concerns Klebsiella pneumoniae.
In experiment [7] the test system is Vibrio cholerae N16961.
The test system of experiment [8] is Staphylococcus aureus.

Values after ≈ are worked out from the molar mass of the structure shown. Values joined by “and” are separate entries in the source; they are usually repeats but may differ in a detail not shown here. Equal entries are not always repeated.

Regarding `CC[C@H](C)[C@H](NC(=O)[C@@H](NC(=O)CN)C(C)C)C(=O)N[C@H](C(=O)N[C@@H](CC(=O)O)C(=O)N[C@@H](C)C(=O)N[C@@H](CC(C)C)C(=O)N[C@@H](CCCCN)C(=O)NCC(=O)N[C@@H](C)C(=O)N[C@@H](C)C(=O)N[C@@H](CCCCN)C(=O)N[C@H](C(=O)N[C@H](C(=O)N[C@@H](C)C(=O)N[C@@H](C)C(=O)N[C@@H](CCC(=O)O)C(=O)N[C@@H](CC(C)C)C(=O)N1CCC[C@H]1C(=O)N[C@@H](CCCN=C(N)N)C(=O)N[C@@H](CCCCN)C(=O)N[C@@H](C)C(=O)N[C@@H](Cc1cnc[nH]1)C(N)=O)C(C)C)[C@@H](C)O)[C@@H](C)O` [GVITDALKGAAKTVAAELPRKAH], the minimal inhibitory concentration (MIC) was ≥ 100 µM in experiment [1]; > 100 µM in experiment [2]; > 100 µM in experiment [3]; ≥ 100 µM in experiment [4]; ≥ 100 µM in experiment [5].
For `CC[C@H](C)[C@H](NC(=O)CNC(=O)[C@H](CC(C)C)NC(=O)[C@H](CC(C)C)NC(=O)[C@H](C)NC(=O)[C@H](CO)NC(=O)[C@H](CCCCN)NC(=O)[C@@H](NC(=O)CN)[C@@H](C)CC)C(=O)N[C@@H](C)C(=O)N[C@@H](CCCCN)C(=O)N[C@@H](CC(N)=O)C(=O)N[C@H](C(=O)NCC(=O)N[C@@H](CCSC)C(=O)N[C@@H](CO)C(=O)N[C@@H](CC(C)C)C(=O)N[C@@H](CC(C)C)C(=O)N[C@@H](CCC(N)=O)C(=O)N[C@@H](CCCCN)C(=O)N[C@@H](C)C(=O)N[C@@H](CCC(N)=O)C(=O)N[C@H]1CSSC[C@@H](C(N)=O)NC(=O)[C@H](CO)NC(=O)CNC(=O)[C@H](CO)NC(=O)[C@H](CC(C)C)NC(=O)[C@H](CCCCN)NC1=O)C(C)C` [GIKSALLGIAKNVGMSLLQKAQCKLSGSC], the minimal inhibitory concentration (MIC) was 8 µM (≈ 23.3 µg/mL) in experiment [6]; 8 µM and 22 µM in experiment [3]; 10 µM (≈ 29.2 µg/mL) in experiment [7]; 16 µM (≈ 46.7 µg/mL) in experiment [8].
